Assay results taken from patent US20230278972A1, “SUBSTITUTED HALOALKYL SULFONANILIDE HERBICIDES” (FMC Corporation, priority 2020, published 2023).

What was measured:
Format in all cases: in vivo
[1] = tested on: barnyardgrass (Echinochloa crus-galli); test: Test A preemergence, barnyardgrass; settings: Preemergence; for Barnyardgrass plant response rating: 125 g ai/ha, visual injury on 0 to 100 scale (0 no effect, 100 complete control), approximately 10 days; for Plant response rating, Barnyardgrass: 0 to 100 scale (0 no effect, 100 complete control)
Summary of the method: (§1)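 Formulated with a surfactant in a non-phytotoxic solvent, compounds are applied to loam–sand pots, either to bare soil immediately after seeding (preemergence) or to seedlings of 2 to 10 cm bearing one to two leaves (postemergence).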

kochia (Bassia scoparia) [2] = test: Test A preemergence, kochia; settings: Preemergence; for Kochia plant response rating: 125 g ai/ha, visual injury on 0 to 100 scale (0 no effect, 100 complete control), approximately 10 days; for Plant response rating, Kochia: 0 to 100 scale (0 no effect, 100 complete control)
Summary of the method: as §1

[3] = tested on: Ryegrass, Italian (Italian ryegrass, Lolium multiflorum); test: Test A preemergence, Ryegrass, Italian; settings: Preemergence; for Ryegrass, Italian plant response rating: 125 g ai/ha, visual injury on 0 to 100 scale (0 no effect, 100 complete control), approximately 10 days; for Plant response rating, Ryegrass, Italian: 0 to 100 scale (0 no effect, 100 complete control)
Summary of the method: as §1

[4] = tested on: Foxtail, Giant (giant foxtail, Setaria faberi); test: Test A preemergence, Foxtail, Giant; settings: Preemergence; for Foxtail, Giant plant response rating: 125 g ai/ha, visual injury on 0 to 100 scale (0 no effect, 100 complete control), approximately 10 days; for Plant response rating, Foxtail, Giant: 0 to 100 scale (0 no effect, 100 complete control)
Summary of the method: as §1

[5] = tested on: pigweed (Amaranthus retroflexus); test: Test A preemergence, pigweed; settings: for Pigweed plant response rating: 125 g ai/ha, visual injury on 0 to 100 scale (0 no effect, 100 complete control), approximately 10 days; for Plant response rating, Pigweed: 0 to 100 scale (0 no effect, 100 complete control)
Excerpt: Seeds of plant species selected from barnyardgrass (Echinochloa crus-galli), kochia (Bassia scoparia), ragweed (common ragweed, Ambrosia artemisiifolia), Ryegrass, Italian (Italian ryegrass, Lolium multiflorum), Foxtail, Giant (giant foxtail, Setaria faberi), and pigweed (Amaranthus retroflexus) were planted into a blend of loam soil and sand and treated preemergence with a directed soil spray using test chemicals formulated in a non-phytotoxic solvent mixture which included a surfactant. At the same time, plants selected from these weed species and also wheat (Triticum aestivum), corn (Zea mays), blackgrass (Alopecurus myosuroides), and galium (catchweed bedstraw, Galium aparine) were planted in pots containing the same blend of loam soil and sand and treated with postemergence applications of test chemicals formulated in the same manner. Plants ranged in height from 2 to 10 cm and were in the one- to two-leaf stage for the postemergence treatment. […] A dash (-) response means no test result.

[6] = tested on: barnyardgrass (Echinochloa crus-galli); test: Test A postemergence, barnyardgrass; settings: Postemergence, 0 to 100 scale (0 no effect, 100 complete control)
Summary of the method: (§2)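 Postemergence ratings come from foliar sprays onto one- to two-leaf plants of 2 to 10 cm grown in loam/sand; preemergence ratings come from a directed spray onto the soil of newly seeded pots. Formulation was a surfactant-containing non-phytotoxic solvent blend.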

kochia (Bassia scoparia) [7] = test: Test A postemergence, kochia; settings: Postemergence, 0 to 100 scale (0 no effect, 100 complete control)
Summary of the method: as §1

[8] = tested on: ragweed (common ragweed, Ambrosia artemisiifolia); test: Test A postemergence, ragweed; settings: Postemergence, 0 to 100 scale (0 no effect, 100 complete control)
Summary of the method: as §1

[9] = tested on: Ryegrass, Italian (Italian ryegrass, Lolium multiflorum); test: Test A postemergence, Ryegrass, Italian; settings: Postemergence, 0 to 100 scale (0 no effect, 100 complete control)
Summary of the method: as §1

[10] = tested on: Foxtail, Giant (giant foxtail, Setaria faberi); test: Test A postemergence, Foxtail, Giant; settings: Postemergence, 0 to 100 scale (0 no effect, 100 complete control)
Summary of the method: as §1

[11] = tested on: pigweed (Amaranthus retroflexus); test: Test A postemergence, pigweed; settings: Postemergence, 0 to 100 scale (0 no effect, 100 complete control)
Summary of the method: as §1

[12] = tested on: wheat (Triticum aestivum); test: Test A postemergence, wheat; settings: Postemergence, 0 to 100 scale (0 no effect, 100 complete control)
Summary of the method: as §2

corn (Zea mays) = test: Test A postemergence, corn; settings: Postemergence, 0 to 100 scale (0 no effect, 100 complete control)
Summary of the method: as §1

[13] = tested on: blackgrass (Alopecurus myosuroides); test: Test A postemergence, blackgrass; settings: Postemergence, 0 to 100 scale (0 no effect, 100 complete control)
Summary of the method: as §1

[14] = tested on: galium (catchweed bedstraw, Galium aparine); test: Test A postemergence, galium; settings: Postemergence, 0 to 100 scale (0 no effect, 100 complete control)
Summary of the method: as §2

[15] = 125 g ai/ha, visual injury approx. 10 days
[16] = 500 g ai/ha, visual injury, approx. 10 days
[17] = 1000 g ai/ha, visual injury, approx. 10 days

O=C(c1ccc(Cl)c(NS(=O)(=O)C(F)(F)F)c1)N1CCOCC1 [Compound 15] was tested, and the “Barnyardgrass plant response rating” value [1] was 0, the “Plant response rating, Barnyardgrass” value ([1]; 500 g ai/ha) was 0 and the “Kochia plant response rating” value (kochia (Bassia scoparia) [2]) was 0. The “Plant response rating, Kochia” value (kochia (Bassia scoparia) [2]; 500 g ai/ha) was 80, the “Ryegrass, Italian plant response rating” value [3] was 30 and the “Plant response rating, Ryegrass, Italian” value ([3]; 500 g ai/ha) was 30. The “Foxtail, Giant plant response rating” value [4] was 10, the “Plant response rating, Foxtail, Giant” value ([4]; 500 g ai/ha) was 70 and the “Pigweed plant response rating” value [5] was 60. For the same compound, the “Plant response rating, Pigweed” value ([5]; 500 g ai/ha) was 70, the “Plant response rating, Barnyardgrass” value [6, 15] was 0 and the “Plant response rating, Barnyardgrass” value [6, 16] was 50. The “Plant response rating, Kochia” value (kochia (Bassia scoparia) [7]; [15]) was 40, the “Plant response rating, Kochia” value (kochia (Bassia scoparia) [7]; [16]) was 70 and the “Plant response rating, Ragweed” value [8, 15] was 70. For the same compound, the “Plant response rating, Ragweed” value [8, 16] was 80, the “Plant response rating, Ryegrass, Italian” value [9, 15] was 30 and the “Plant response rating, Ryegrass, Italian” value [9, 16] was 0. The “Plant response rating, Foxtail, Giant” value [10, 15] was 0, the “Plant response rating, Foxtail, Giant” value [10, 16] was 50 and the “Plant response rating, Pigweed” value [11, 15] was 0. For the same compound, the “Plant response rating, Pigweed” value [11, 16] was 30, the “Plant response rating, Wheat” value [12, 15] was 0 and the “Plant response rating, Wheat” value [12, 16] was 0. For the same compound, the “Plant response rating, Corn” value (corn (Zea mays); [15]) was 0, the “Plant response rating, Corn” value (corn (Zea mays); [16]) was 0 and the “Plant response rating, Blackgrass” value [13, 15] was 0. The “Plant response rating, Blackgrass” value [13, 16] was 30, the “Plant response rating, Galium” value [14, 15] was 50 and the “Plant response rating, Galium” value [14, 16] was 60.

CCN(CC)C(=O)c1cc(NS(=O)(=O)C(F)(F)F)c(Cl)cc1C [Compound 21] was tested, and the “Barnyardgrass plant response rating” value [1] was 80, the “Plant response rating, Barnyardgrass” value ([1]; 500 g ai/ha) was 100 and the “Kochia plant response rating” value (kochia (Bassia scoparia) [2]) was 0. For the same compound, the “Plant response rating, Kochia” value (kochia (Bassia scoparia) [2]; 500 g ai/ha) was 0, the “Ryegrass, Italian plant response rating” value [3] was 30 and the “Plant response rating, Ryegrass, Italian” value ([3]; 500 g ai/ha) was 100. For the same compound, the “Foxtail, Giant plant response rating” value [4] was 20, the “Plant response rating, Foxtail, Giant” value ([4]; 500 g ai/ha) was 100 and the “Pigweed plant response rating” value [5] was 40. The “Plant response rating, Pigweed” value ([5]; 500 g ai/ha) was 60, the “Plant response rating, Barnyardgrass” value [6, 15] was 20 and the “Plant response rating, Barnyardgrass” value [6, 16] was 40. The “Plant response rating, Kochia” value (kochia (Bassia scoparia) [7]; [15]) was 10, the “Plant response rating, Kochia” value (kochia (Bassia scoparia) [7]; [16]) was 30 and the “Plant response rating, Ragweed” value [8, 15] was 50. For the same compound, the “Plant response rating, Ragweed” value [8, 16] was 90, the “Plant response rating, Ryegrass, Italian” value [9, 15] was 0 and the “Plant response rating, Ryegrass, Italian” value [9, 16] was 50. For the same compound, the “Plant response rating, Foxtail, Giant” value [10, 15] was 0, the “Plant response rating, Foxtail, Giant” value [10, 16] was 20 and the “Plant response rating, Pigweed” value [11, 15] was 0. For the same compound, the “Plant response rating, Pigweed” value [11, 16] was 40, the “Plant response rating, Wheat” value [12, 15] was 0 and the “Plant response rating, Wheat” value [12, 16] was 30. The “Plant response rating, Corn” value (corn (Zea mays); [15]) was 0, the “Plant response rating, Corn” value (corn (Zea mays); [16]) was 30 and the “Plant response rating, Blackgrass” value [13, 15] was 10. For the same compound, the “Plant response rating, Blackgrass” value [13, 16] was 10, the “Plant response rating, Galium” value [14, 15] was 50 and the “Plant response rating, Galium” value [14, 16] was 60.

Cc1cc(Cl)c(NS(=O)(=O)C(F)(F)F)cc1C(=O)N(C)C [Compound 23] was tested, and the “Barnyardgrass plant response rating” value [1] was 90, the “Plant response rating, Barnyardgrass” value ([1]; 500 g ai/ha) was 100 and the “Kochia plant response rating” value (kochia (Bassia scoparia) [2]) was 80. The “Plant response rating, Kochia” value (kochia (Bassia scoparia) [2]; 500 g ai/ha) was 80, the “Ryegrass, Italian plant response rating” value [3] was 40 and the “Plant response rating, Ryegrass, Italian” value ([3]; 500 g ai/ha) was 100. For the same compound, the “Foxtail, Giant plant response rating” value [4] was 70, the “Plant response rating, Foxtail, Giant” value ([4]; 500 g ai/ha) was 100 and the “Pigweed plant response rating” value [5] was 80. The “Plant response rating, Pigweed” value ([5]; 500 g ai/ha) was 100, the “Plant response rating, Barnyardgrass” value [6, 15] was 50 and the “Plant response rating, Barnyardgrass” value [6, 16] was 70. For the same compound, the “Plant response rating, Kochia” value (kochia (Bassia scoparia) [7]; [15]) was 40, the “Plant response rating, Kochia” value (kochia (Bassia scoparia) [7]; [16]) was 70 and the “Plant response rating, Ragweed” value [8, 15] was 80. The “Plant response rating, Ragweed” value [8, 16] was 80, the “Plant response rating, Ryegrass, Italian” value [9, 15] was 30 and the “Plant response rating, Ryegrass, Italian” value [9, 16] was 80. The “Plant response rating, Foxtail, Giant” value [10, 15] was 50, the “Plant response rating, Foxtail, Giant” value [10, 16] was 90 and the “Plant response rating, Pigweed” value [11, 15] was 70. For the same compound, the “Plant response rating, Pigweed” value [11, 16] was 80, the “Plant response rating, Wheat” value [12, 15] was 50 and the “Plant response rating, Wheat” value [12, 16] was 70. The “Plant response rating, Corn” value (corn (Zea mays); [15]) was 20, the “Plant response rating, Corn” value (corn (Zea mays); [16]) was 70 and the “Plant response rating, Blackgrass” value [13, 15] was 30. For the same compound, the “Plant response rating, Blackgrass” value [13, 16] was 30, the “Plant response rating, Galium” value [14, 15] was 80 and the “Plant response rating, Galium” value [14, 16] was 90.

In the case of Cc1ccc(C(=O)N2CCC(C(F)(F)F)CC2)cc1NS(=O)(=O)C(F)(F)F [Compound 263], the “Plant response rating, Barnyardgrass” value ([1]; 1000 g ai/ha) was 30, the “Plant response rating, Kochia” value (kochia (Bassia scoparia) [2]; 1000 g ai/ha) was 20 and the “Plant response rating, Ryegrass, Italian” value ([3]; 1000 g ai/ha) was 50. For the same compound, the “Plant response rating, Foxtail, Giant” value ([4]; 1000 g ai/ha) was 70, the “Plant response rating, Pigweed” value ([5]; 1000 g ai/ha) was 60 and the “Plant response rating, Barnyardgrass” value [6, 17] was 30. For the same compound, the “Plant response rating, Kochia” value (kochia (Bassia scoparia) [7]; [17]) was 10, the “Plant response rating, Ragweed” value [8, 17] was 0 and the “Plant response rating, Ryegrass, Italian” value [9, 17] was 80. The “Plant response rating, Foxtail, Giant” value [10, 17] was 0, the “Plant response rating, Pigweed” value [11, 17] was 0 and the “Plant response rating, Wheat” value [12, 17] was 0. The “Plant response rating, Corn” value (corn (Zea mays); [17]) was 20, the “Plant response rating, Blackgrass” value [13, 17] was 20 and the “Plant response rating, Galium” value [14, 17] was 60.
